Assay results: US20250003952A1, “SENOLYTIC DRUG SCREENING METHOD AND SENOLYTIC DRUG” (KYOTO UNIVERSITY, priority 2021, published 2025)

How the values were obtained:
PGAM-Chk1 binding [1] = target: T1, PGAM-Chk1 binding (Homo sapiens, UniProt O14757+P18669); experiment: Nano-Bit PGAM-Chk1 binding in cancer cell line H1299; type: cell-based; settings: H1299 cells; 40 μM for 12, 24, and 48 hours
T1 construct: expressed in transfected cells
Excerpt: PGAM and Chk1 kinase genes tagged with Nano-Bit tags were introduced into the cancer cell line H1299 to prepare a cell line capable of stable expression. […] The treated cells were used to measure intracellular luciferase luminescence signals by Nano-Bit for each.
T1 sequence (P18669 whole entry, one chain of several): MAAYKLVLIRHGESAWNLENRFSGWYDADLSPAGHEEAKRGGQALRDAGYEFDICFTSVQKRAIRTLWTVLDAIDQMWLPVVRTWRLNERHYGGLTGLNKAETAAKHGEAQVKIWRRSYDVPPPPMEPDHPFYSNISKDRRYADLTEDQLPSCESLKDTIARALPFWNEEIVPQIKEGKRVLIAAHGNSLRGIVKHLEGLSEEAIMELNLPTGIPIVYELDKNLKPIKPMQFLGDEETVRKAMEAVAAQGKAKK

glycolytic metabolism = experiment: Glycolytic metabolism (glucose consumption, lactate production) in etoposide-induced senescent IMR90 cells; type: cell-based, human; settings: 20 μM or 40 μM for 48 hours
Procedure: Next, young cells (within 1 month of continuous culture) of the IMR90 cells were treated with 100 μM etoposide for 48 hours to acquire senescent cells. […] After the nutlin treatment, the medium was collected, and glucose consumption was evaluated and lactate production was measured. The lactate level is calculated as a value (μmol/mg/h) obtained by measuring the amount of lactate secreted into the medium per hour (μmol/h) and correcting the same by the total cell protein (mg) and is expressed as a value relative to the actual value on day 0. The glucose consumption is calculated as a value (μmol/mg/h) obtained by measuring the amount of glucose decreased from the medium per hour (μmol/h) and correcting the same by the total cell protein (mg) and is expressed as a value relative to the actual value on day 0. Glucose and lactate were measured by using a Glucose assay kit (BioVision) (upper diagram in FIG. 8) and a Lactate assay kit (BioVision) (lower diagram in FIG. 8), respectively.

aged C57BL/6 mice = experiment: Nutlin 3b administration to aged mice for 2 months, RT-PCR of senescence and inflammation markers; type: in vivo, mouse; settings: 90 weeks, 11.63 mg/kg intraperitoneal once a week for 2 months
Procedure: Specifically, 16 aged C57BL/6 mice at 90 weeks of age were provided. The mice were divided into two groups (control: 8 mice, agent group: 8 mice), and intraperitoneal injection administration once a week was continued for 2 months. […] One week after the end of the last administration, all mice were dissected, and RNA was extracted from each organ. Senescence markers and inflammation markers were evaluated by RT-PCR.

[2] = test system: Twenty-month-old C57BL/6 mice; experiment: Nutlin 3b administration to aged mice for 3 months; type: in vivo, mouse
Excerpt: The vehicle group was given a solvent alone on the same schedule.

BIM gene = BIM gene expression in Ras-induced senescent IMR90 cells; type: cell-based, human; settings: senescent (OIS) IMR90 cells; 48 hours
Procedure: An oncogenic Ras was introduced into young cells (within 1 month of continuous culture) of IMR90 cells to induce senescent cells (OIS).
An oncogenic Ras was introduced into young cells (within 1 month of continuous culture) of IMR90 cells to induce senescent cells (OIS). The senescent cells were transfected with an HIF-2α-specific siRNA (SEQ ID NO: 9) to knock down HIF-2α. After that, the expression of the BIM gene, which is an apoptosis-inducing gene, was analyzed (FIG. 26).

PGAM-Chk1 binding [3] = target: T1, PGAM-Chk1 binding; experiment: Nano-Bit PGAM-Chk1 binding in young and etoposide-induced senescent IMR90 cells; type: cell-based; settings: etoposide-induced senescent IMR90 cells; 20 μM or 40 μM for 48 hours
Procedure: In addition, PGAM and Chk1 kinase genes tagged with Nano-Bit tags were introduced into IMR90 cells to prepare a cell line capable of stable expression Young cells (within 1 month of continuous culture) of the IMR90 cells were treated with 100 uM etoposide for 48 hours to induce cellular senescence.

PGAM-Chk1 binding [4] = target: T2, PGAM-Chk1 binding (Homo sapiens, UniProt O14757+P18669); experiment: PGAM-Chk1 binding by anti-Chk1 immunoprecipitation and anti-PGAM Western blotting in Ras-induced senescent IMR90 cells; type: cell-based; settings: 20 μM or 40 μM for 48 hours, then MG132 6 hours
T2 construct: endogenous in cells; host or cells: IMR90 human primary fibroblasts made senescent by retroviral oncogenic Ras
T2 sequence (P18669 2-254 limits assumed): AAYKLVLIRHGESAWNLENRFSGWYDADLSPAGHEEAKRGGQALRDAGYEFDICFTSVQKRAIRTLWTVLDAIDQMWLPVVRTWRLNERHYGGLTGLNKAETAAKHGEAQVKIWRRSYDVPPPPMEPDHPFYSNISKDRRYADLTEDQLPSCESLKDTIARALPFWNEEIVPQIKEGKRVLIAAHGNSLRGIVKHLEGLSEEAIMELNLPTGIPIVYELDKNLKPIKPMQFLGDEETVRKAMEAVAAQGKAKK
T2 sequence (O14757 1-476): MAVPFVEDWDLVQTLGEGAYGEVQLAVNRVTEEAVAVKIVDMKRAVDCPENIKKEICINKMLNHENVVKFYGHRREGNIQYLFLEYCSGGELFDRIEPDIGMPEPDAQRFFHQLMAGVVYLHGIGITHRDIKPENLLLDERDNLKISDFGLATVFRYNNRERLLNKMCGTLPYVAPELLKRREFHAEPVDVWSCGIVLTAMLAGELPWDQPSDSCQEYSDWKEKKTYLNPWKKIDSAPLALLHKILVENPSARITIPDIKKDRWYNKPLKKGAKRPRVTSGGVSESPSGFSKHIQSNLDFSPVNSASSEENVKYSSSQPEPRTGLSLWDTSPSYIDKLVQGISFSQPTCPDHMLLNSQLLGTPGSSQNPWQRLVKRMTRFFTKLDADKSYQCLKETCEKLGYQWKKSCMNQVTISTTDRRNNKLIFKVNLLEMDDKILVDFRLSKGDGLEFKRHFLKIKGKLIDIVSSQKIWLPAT
Procedure: Human primary fibroblasts, IMR90 cells, were obtained from the JCRB Cell Bank. An oncogenic Ras mutation was retrovirally introduced into young cells (within 1 month of continuous culture) of the IMR90 cells to induce cellular senescence. […] After that, these cells were treated with MG132 for 6 hours, and cell lysates were prepared. The obtained cell lysates were immunoprecipitated with an anti-Chk1 antibody. The resulting immunoprecipitate was used for Western blotting with an anti-PGAM antibody to evaluate PGAM-Chk1 binding.
Next, in the same manner as above, IMR90 cells were used to prepare stress-induced senescent cells by introducing an oncogenic mutated Ras gene. The senescent cells were transfected with an RSK1 siRNA (SEQ ID NO: 7) or a control to knock down RSK1. The resulting cells were collected, and proteins were extracted. The resulting protein extract was immunoprecipitated with an anti-Chk1 antibody. The resulting immunoprecipitate was used for Western blotting with an anti-PGAM antibody to evaluate PGAM-Chk1 binding.

[5] = 11.62 mg/kg intraperitoneal once a week for 3 months

COc1ccc(C2=N[C@H](c3ccc(Cl)cc3)[C@H](c3ccc(Cl)cc3)N2C(=O)N2CCNC(=O)C2)c(OC(C)C)c1 [nutlin 3b]
luciferase luminescence signal by Nano-Bit (PGAM-Chk1 binding) (PGAM-Chk1 binding [1]): treatment time-dependent decrease
glucose consumption (glycolytic metabolism): suppressed in a dose-dependent manner
lactate production (glycolytic metabolism): suppressed in a dose-dependent manner
inflammatory markers (RT-PCR, organs) (aged C57BL/6 mice): reduced
senescence markers (RT-PCR, organs) (aged C57BL/6 mice): reduced
lactate level (plasma) [2, 5]: improved
liver function marker plasma albumin level [2, 5]: improved
muscle strength (wire hang test) [2, 5]: improved
renal function marker plasma BUN [2, 5]: improved
renal function marker plasma creatinine [2, 5]: improved
degree of cellular senescence in adipose tissue (SA ß-Gal staining) ([2]; 11.62 mg/kg once a week for 3 months): improved
p21-positive cells in the liver ([2]; histochemical analysis, 11.62 mg/kg once a week for 3 months): significantly decreased
SASP factors (IL6, CXCL1, TNFα, and CCL5) ([2]; liver mRNA, 11.62 mg/kg once a week for 3 months): reductions
F4/F80-positive cells (macrophage infiltration) ([2]; liver, 11.62 mg/kg once a week for 3 months): reduced
expression of the apoptosis-inducing gene BIM (BIM gene): increased
potentiation of PGAM-Chk1 binding (intracellular luminescence signals of Nano-Bit) (PGAM-Chk1 binding [3]): suppressed by the nutlin 3b treatment in a dose-dependent manner
PGAM-Chk1 binding (interaction) (PGAM-Chk1 binding [4]): inhibit PGAM-Chk1 interaction to the same extent
